# Changes are numbered by the printed parent chain.
# Assays:
# [1] = biological target: T1, CRISPR KI Y537S (Homo sapiens, UniProt P03372, Y537S); test: Luciferase assay, CRISPR KI Y537S clones; format: cell-based; set-up: concentration or dose not given beside the values; conditions: for CRISPR KI (% Inhibition) Y537S cl. 4: clone 4; for CRISPR KI (% Inhibition) Y537S cl. 24: clone 24
# T1 construct: endogenous in cells; host or cells: CRISPR knock-in clones (cl. 4, cl. 24)
# T1 sequence (P03372 1-595 Y537S): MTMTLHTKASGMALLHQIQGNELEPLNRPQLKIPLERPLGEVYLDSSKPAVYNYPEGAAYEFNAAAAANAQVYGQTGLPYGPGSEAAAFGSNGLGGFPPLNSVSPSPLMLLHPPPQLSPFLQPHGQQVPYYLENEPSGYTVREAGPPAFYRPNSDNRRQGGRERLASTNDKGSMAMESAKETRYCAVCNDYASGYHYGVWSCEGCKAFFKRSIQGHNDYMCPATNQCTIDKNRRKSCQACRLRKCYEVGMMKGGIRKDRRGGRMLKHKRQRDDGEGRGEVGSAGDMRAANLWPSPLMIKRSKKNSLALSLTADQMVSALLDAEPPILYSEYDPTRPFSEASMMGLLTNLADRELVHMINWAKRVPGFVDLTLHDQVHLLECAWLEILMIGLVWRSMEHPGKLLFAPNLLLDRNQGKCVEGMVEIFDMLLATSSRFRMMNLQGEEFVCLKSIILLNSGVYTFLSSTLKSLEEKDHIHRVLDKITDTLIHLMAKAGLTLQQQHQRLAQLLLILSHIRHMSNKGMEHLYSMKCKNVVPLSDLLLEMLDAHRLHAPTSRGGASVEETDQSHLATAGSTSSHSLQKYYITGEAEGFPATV
# Procedure: (§1) Luciferase assays were performed to determine the efficacy of the example compounds at inhibiting ER or its mutants' ability to activate transcription of genes.
# (§2) Cells were plated at a density of 0.15×10^6 per well of 24 well plates one day prior to transfection. Cells were transfected with 125 ng (per well) of HA-ERα wild type or mutants, 315 ng (per well) of 3×-ERE-TATA-Luciferase reporter and 50 ng (per well) of pRL-TK Renilla Luciferase plasmid, using Xtremegene (Roche). The cells were treated with the various compounds or Fulvestrant at the indicated doses a day after transfection for 24 hours and luciferase activities were determined using the Dual-Luciferase® Reporter Assay System (Promega) according to manufacturer's instructions. Luciferase bioluminescence measurements were performed with the Veritas™ Microplate Luminometer (Promega). All experiments were conducted in triplicate and the Firefly luciferase activity was normalized with the Renilla luciferase activity of each sample.
# [2] = biological target: T2, HA-ERα L536R (Homo sapiens, UniProt P03372, L536R); test: Luciferase assay, overexpressed ER (3×-ERE-TATA-Luciferase reporter); format: cell-based; conditions: compound concentration 1 μM, 24 hours
# T2 construct: HA; expressed in transfected cells
# T2 sequence (P03372 1-595 L536R): T1 sequence (P03372 1-595 Y537S) with L536R, S537Y
# In short: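 Cells transfected with HA-ERα wild type or mutant, 3×-ERE-TATA firefly luciferase reporter and pRL-TK Renilla, then treated one day later with compound for 24 h.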
# [3] = biological target: T3, full length human estrogen receptor a (Homo sapiens, UniProt P03372); test: Competitive radiometric binding assay (RBA), tritiated estradiol tracer; conditions: relative to estradiol = 100; average SD of 2-3 determinations
# T3 construct: purified, full-length human estrogen receptor a from Invitrogen; purchased Invitrogen
# T3 sequence (P03372 1-595): T1 sequence (P03372 1-595 Y537S) with S537Y
# Procedure: Tritiated estradiol was obtained from Perkin Elmer and purified, full-length human estrogen receptor a from Invitrogen.
# Competitive radiometric binding assays (RBA) were performed on 96-well microtiter filter plates (Millipore), using full length human estrogen receptor a, with tritiated estradiol as tracer, as previously described (Carlson K E, Choi I, Gee A, Katzenellenbogen B S, Katzenellenbogen J A. Altered ligand binding properties and enhanced stability of a constitutively active estrogen receptor: evidence that an open pocket conformation is required for ligand interaction. Biochemistry 1997, 36(48), 14897-14905). After incubation on ice for 18-24 h, ERα-bound tracer was absorbed onto hydroxyapatite (BioRad), washed with buffer, and measured by scintillation counting. RBA values are the average SD of 2-3 determinations.
# [4] = Cell proliferation assay (WST-1), 6-day exposure; format: cell-based; conditions: 144 h, read-out: Antiproliferation IC50
# Procedure: Cell proliferation assay: WST-1 assay (Roche, Basel, Switzerland) was used to quantify cell viability after a 6-day exposure to compounds, as described in Gong et al. Mol. Cell. Endocrinol. 2016, 437, 190-200. Absorbance was measured at 450 nm using a VICTOR X5 PerkinElmer 2030 Multilabel Plate Reader, and cell proliferation values represent signal from compound-treated samples relative to vehicle-treated controls. All assays were performed in triplicate, and the values shown are the average SD of 2-3 independent experiments.
# [5] = test system: MCF7; test: Luciferase assay in MCF7; format: cell-based; set-up: concentration or dose not given beside the values
# Procedure: as §1, §2
Compound,CRISPR KI (% Inhibition) Y537S cl. 4 [1],CRISPR KI (% Inhibition) Y537S cl. 24 [1],inhibition at 1 µM [2],RBA (estradiol = 100) [3],IC50 [4],MCF7 (% Inhibition) [5]
"O=C(NCCCCOc1ccc(C(=C2C3CC4CC(C3)CC2C4)c2ccc(O)cc2)cc1)C1CCCCCC1 [Example 12, N-(4-(4-(Adamantan-2-ylidene(4-hydroxyphenyl)methyl)phenoxy)butyl)-cycloheptanecarboxamide]",−232%,−199%,87%,30 ± 5,5 nM,82%
"CC12CC3CC(C)(C1)CC(C(=O)NCCCCOc1ccc(C(=C4C5CC6CC(C5)CC4C6)c4ccc(O)cc4)cc1)(C3)C2 [Example 7, N-(4-(4-(Adamantan-2-ylidene(4-hydroxyphenyl)methyl)phenoxy)butyl)-3,5-dimethyladamantane-1-carboxamide]",−70%,−64%,77%,6.0 ± 0.1,5 nM,53%
"O=C(NCCCCOc1ccc(C(=C2C3CC4CC(C3)CC2C4)c2ccc(O)cc2)cc1)[C@H]1CC[C@H](C(F)(F)F)CC1 [Example 14, (trans)-N-(4-(4-(Adamantan-2-ylidene(4-hydroxyphenyl)methyl)phenoxy)-butyl)-4-(trifluoromethyl)cyclohexanecarboxamide]",−342%,−421%,82%,10 ± 0.4,0.5 nM,72%
"O=C(NCCCCOc1ccc(C(=C2C3CC4CC(C3)CC2C4)c2ccc(O)cc2)cc1)C1CCC(F)(F)CC1 [Example 13, N-(4-(4-(Adamantan-2-ylidene(4-hydroxyphenyl)methyl)phenoxy)butyl)-4,4-difluorocyclohexanecarboxamide]",−334%,−327%,90%,30 ± 0.1,4 nM,80%

# Continued, in another order:
CRISPR KI (% Inhibition) Y537S cl. 4 [1],CRISPR KI (% Inhibition) Y537S cl. 24 [1],inhibition at 1 µM [2],RBA (estradiol = 100) [3],Compound,IC50 [4],MCF7 (% Inhibition) [5]
−387%,−249%,84%,17 ± 2,"O=C(NCCCCOc1ccc(C(=C2C3CC4CC(C3)CC2C4)c2ccc(O)cc2)cc1)C12CC3CC(CC1C3)C2 [Example 8, N-(4-(4-((Adamantan-2-ylidene)(4-hydroxyphenyl)methyl)phenoxy)butyl)-hexahydro-2,5-methanopentalene-3a(1H)-carboxamide]",12 nM,77%
−62%,−10%,79%,28 ± 6,"O=C(NCCCCOc1ccc(C(=C2C3CC4CC(C3)CC2C4)c2ccc(O)cc2)cc1)C1CCCCC1 [Example 11, N-(4-(4-(Adamantan-2-ylidene(4-hydroxyphenyl)methyl)phenoxy)butyl)-cyclohexanecarboxamide]",0.6 nM,84%
−369%,−384%,89%,37 ± 0.3,"O=C(NCCCCOc1ccc(C(=C2C3CC4CC(C3)CC2C4)c2ccc(O)cc2)cc1)[C@H]1C[C@@H]2C=C[C@H]1C2 [Example 9, (1R, 2S, 4R)—N-(4-(4-(Adamantan-2-ylidene(4-hydroxyphenyl)methyl)phenoxy)-butyl)bicyclo[2.2.1]hept-5-ene-2-carboxamide]",9 nM,73%
−187%,−108%,70%,11 ± 3,"O=C(NCCCCOc1ccc(C(=C2C3CC4CC(C3)CC2C4)c2ccc(O)cc2)cc1)C12CC3CC(CC(C3)C1)C2 [Example 6, N-(4-(4-(Adamantan-2-ylidene(4-hydroxyphenyl)methyl)phenoxy)-butyl)adamantane-1-carboxamide]",13 nM,70%
–,−496%,78%,70 ± 1,"O=C(NCCCCOc1ccc(C(=C2C3CC4CC(C3)CC2C4)c2ccc(O)cc2)cc1)C1CCC1 [Example 10, N-(4-(4-(Adamantan-2-ylidene(4-hydroxyphenyl)methyl)phenoxy)butyl)-cyclobutanecarboxamide]",3 nM,66%

# Reference: US11667621B2, “Antiestrogen compounds” (STEVENS INSTITUTE OF TECHNOLOGY, priority 2018, dated 2023)
